From patent US20060051374A1, “Compositions and methods for mucosal vaccination” (3M Innovative Properties Company, priority 2004, published 2006)

Test system: OT-I cells
Assay: Total OT-I cell numbers in lymphoid tissues and percentage in nasal mucosa at Day 7 (Example 1)
Assay type: in vivo, C57BL/6 mice
Procedure: An Ovalbumin-IRM1 conjugate was prepared as follows. IRM1 was suspended in dimethyl sulfoxide (DMSO) to 10 mg/ml. Ovalbumin was suspended in phosphate buffered saline (PBS) to 10 mg/ml and the pH adjusted to >10.0 by the addition of NaOH. 500 μL of the ovalbumin solution (5 mg ovalbumin) was mixed with 100 μL of the IRM1 solution (1 mg IRM1) in a single well of a 12-well tissue culture plate. The plate was placed on ice and a long wavelength UV light source was placed directly over the plate as close to the well containing the IRM1/ovalbumin mixture as possible. The mixture was irradiated for 15 minutes. […]
Chicken Ovalbumin-specific CD8^+ T cells (OT-I, The Jackson Laboratories, Bar Harbor, Me.) were labeled with carboxyfluoroscein succinimidyl ester (CFSE, Molecular Probes, Inc., Eugene, Oreg.), a fluorescent dye that stains cells in a stabile manner, and then adoptively transferred into syngenic C57BL/6 mice (Charles River Laboratories, Wilmington, Mass.). […] Cells were then run on a FACSCaliber (Becton, Dickinson, and Co., San Jose, Calif.) and CD8^+SIINFEKL/K^b tetramer^+ T cells were analyzed for CFSE expression.
Separately, total OT-I cell numbers at Day 7 were counted in nasal associated lymphoid tissue (NALT), cervical lymph node (CLN), and spleen (Spl). […] Additionally, the percentage of OT-I cells in the nasal mucosa at determined at Day 7. […]

In the case of `CCOCc1nc2c(N)nc3ccccc3c2n1CC(C)(C)NC(=O)CCCCCNC(=O)c1ccc(N=[N+]=[N-])cc1O` [IRM1, N-[6-({2-[4-amino-2-(ethoxymethyl)-1H-imidazo[4,5-c]quinolin-1-yl]-1,1-dimethylethyl}amino)-6-oxohexyl]-4-azido-2-hydroxybenzamide], the “total OT-I cell numbers, intranasal IRM1 plus antigen versus antigen alone” value (Ovalbumin-IRM1 conjugate intranasal, FIG. 2) is reported as “greater total OT-I cell numbers at Day 7 than antigen alone” and the “total OT-I cell numbers, intranasal versus intravenous delivery” value (Ovalbumin-IRM1 conjugate, NALT, CLN, spleen, FIG. 2A-2C) is reported as “greater total OT-I cell numbers at Day 7 than intravenous delivery in all lymphoid tissues examined”.
